Results on 16 compounds are retold here after US7488736B2, “Thienopyridinone compounds and methods of treatment” (Epix Delaware, Inc., priority 2004, dated 2009).

Counter-ions that a name gives are not always drawn.

The target in one experiment is h 5-HT4e Receptor (Homo sapiens, UniProt Q13639). In words: h 5-HT4e receptor binding affinity assay.
Chain of h 5-HT4e Receptor (Q13639 1-378 isoform Q13639-5): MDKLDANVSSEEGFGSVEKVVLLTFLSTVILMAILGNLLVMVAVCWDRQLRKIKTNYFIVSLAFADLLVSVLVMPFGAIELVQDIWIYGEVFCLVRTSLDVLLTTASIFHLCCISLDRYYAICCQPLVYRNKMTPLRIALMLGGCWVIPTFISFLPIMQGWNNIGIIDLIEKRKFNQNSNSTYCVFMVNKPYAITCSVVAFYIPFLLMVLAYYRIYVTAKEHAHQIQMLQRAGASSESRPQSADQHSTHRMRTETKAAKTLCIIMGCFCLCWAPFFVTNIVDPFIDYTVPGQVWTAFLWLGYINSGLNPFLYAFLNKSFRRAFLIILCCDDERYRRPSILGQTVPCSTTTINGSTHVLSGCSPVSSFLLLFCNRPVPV
Conditions: not given
The compound `CC(C)Cn1c(=O)c(C(=O)NCCCN2CCCCC2)c(O)c2ccsc21` [Compound 1, 6,7-Dihydro-4-hydroxy-7-isobutyl-6-oxo-N-(3-(piperidin-1-yl)propyl)thieno[2,3-b]pyridine-5-carboxamide hydrochloride salt] returned a Ki of 120 nM. Same read-out and setting: next, `CCCn1c(=O)c(C(=O)NCCCN2CCC(C)CC2)c(O)c2ccsc21` [Compound 2, 6,7-Dihydro-4-hydroxy-N-(3-(4-methylpiperidin-1-yl)propyl)-6-oxo-7-propylthieno[2,3-b]pyridine-5-carboxamide hydrochloride salt]: 160 nM. On to `CCn1c(=O)c(C(=O)NCCCN2CCCCC2)c(O)c2ccsc21` [Compound 3, 6,7-Dihydro-7-ethyl-4-hydroxy-6-oxo-N-(3-(piperidin-1-yl)propyl)thieno[2,3-b]pyridine-5-carboxamide hydrochloride salt], for which the Ki worked out at 36 nM.

For `CCn1c(=O)c(C(=O)NCCCN2CCC(C)CC2)c(O)c2ccsc21` [Compound 4, 6,7-Dihydro-7-ethyl-4-hydroxy-N-(3-(4-methylpiperidin-1-yl)propyl)-6-oxothieno[2,3-b]pyridine-5-carboxamide hydrochloride salt], the affinity corresponds to a Ki of 20 nM. Still for that read-out and setting: the same measure for `CCC1CCN(CCCNC(=O)c2c(O)c3ccsc3n(CC)c2=O)CC1` [Compound 5, 6,7-Dihydro-7-ethyl-N-(3-(4-ethylpiperidin-1-yl)propyl)-4-hydroxy-6-oxothieno[2,3-b]pyridine-5-carboxamide hydrochloride salt]: 26 nM; for `CC(C)n1c(=O)c(C(=O)NCCCN2CCCC2)c(O)c2ccsc21` [Compound 6, 6,7-Dihydro-4-hydroxy-7-isopropyl-6-oxo-N-(3-(pyrrolidin-1-yl)propyl)thieno-[2,3-b]pyridine-5-carboxamide hydrochloride salt]: 35 nM. On the same count and under the same terms, next, `CC1CCN(CCCNC(=O)c2c(O)c3ccsc3n(C(C)C)c2=O)CC1` [Compound 8, 6,7-Dihydro-4-hydroxy-7-isopropyl-N-(3-(4-methylpiperidin-1-yl)propyl)-6-oxothieno[2,3-b]pyridine-5-carboxamide hydrochloride salt]: 65 nM.

For `CC(C)n1c(=O)c(C(=O)NCCCN2CCC(C(F)(F)F)CC2)c(O)c2ccsc21` [Compound 9, 6,7-Dihydro-4-hydroxy-7-isopropyl-6-oxo-N-(3-(4-(trifluoromethyl)piperidin-1-yl)propyl)thieno[2,3-b]pyridine-5-carboxamide hydrochloride salt], affinity was put at a Ki of 50 nM. In the case of `COC(=O)C1CCN(CCCNC(=O)c2c(O)c3ccsc3n(C(C)C)c2=O)CC1` [Compound 10, 6,7-Dihydro-4-hydroxy-7-isopropyl-6-oxo-N-(3-(4-(methoxycarbonyl)piperidin-1-yl)propyl)thieno[2,3-b]pyridine-5-carboxamide hydrochloride salt], the affinity, expressed as Ki, was 40 nM.

`CC(C)n1c(=O)c(C(=O)NCCCN2CCC(F)(F)CC2)c(O)c2ccsc21` [Compound 11, N-(3-(4,4-Difluoropiperidin-1-yl)propyl)-6,7-dihydro-4-hydroxy-7-isopropyl-6-oxothieno[2,3-b]pyridine-5-carboxamide hydrochloride salt] showed a Ki of 220 nM. Turning to `CC(C)n1c(=O)c(C(=O)NCCCN2CCC(C)(C)CC2)c(O)c2ccsc21` [Compound 12, 6,7-Dihydro-N-(3-(4,4-dimethylpiperidin-1-yl)propyl)-4-hydroxy-7-isopropyl-6-oxothieno[2,3-b]pyridine-5-carboxamide hydrochloride salt], the inhibition constant Ki came to 200 nM. Consider `CC(C)n1c(=O)c(C(=O)NCCCN2[C@H](C)CCC[C@@H]2C)c(O)c2ccsc21` [Compound 13, 6,7-Dihydro-N-(3-((2R,6S)-2,6-dimethylpiperidin-1-yl)propyl)-4-hydroxy-7-isopropyl-6-oxothieno[2,3-b]pyridine-5-carboxamide hydrochloride salt], for which affinity was put at a Ki of 380 nM. Compound `Cc1sc2c(c1C)c(O)c(C(=O)NCCCN1CCCCC1)c(=O)n2C(C)C` [Compound 14, 6,7-Dihydro-2,3-dimethyl-4-hydroxy-7-isopropyl-6-oxo-N-(3-(piperidin-1-yl)propyl)thieno-[2,3-b]pyridine-5-carboxamide hydrochloride salt] showed a Ki of 140 nM.

Consider `COc1c(C(=O)NCCCN2CCCCC2)c(=O)n(C(C)C)c2sccc12` [Compound 16, 6,7-Dihydro-7-isopropyl-4-methoxy-6-oxo-N-(3-(piperidin-1-yl)propyl)thieno[2,3-b]pyridine-5-carboxamide], for which the Ki stood at 31 nM.

A further experiment concerns rats. Briefly: Spontaneous alternation task (cross maze), spatial working memory. In kind it is in vivo, rat. Also on record: number of arm entries: unit not given here. To be noted: 5 mg/kg i.p., 12 minutes on cross maze. The source says: Effect of Compound 23 on Spatial Working Memory in the Spontaneous Alternation Task Performance in Rats
Rats have an innate tendency to explore their environment in a systematic way. That is, if a rat chose a certain arm on the first trial in a maze, there is high probability that it will choose a different arm on the second trial. […] The performance in the spontaneous alternation test is highly dependent on spatial working memory capacity and rats with compromised “working memory” cannot retain information regarding places just visited in memory; therefore they show decreased spontaneous alternation. In this study, rats were tested for spontaneous alternation performance on the cross maze. Rats were allowed to explore the maze freely for 12 minutes. An alternation was recorded if a rat entered all four arms within a series of four consecutive entries. Chance performance is 22.5% with this measure.
On to `CC(C)n1c(=O)c(C(=O)NCCCN2CCCCC2)c([O-])c2ccsc21.[K+]` [Compound 23, 6,7-Dihydro-4-hydroxy-7-isopropyl-6-oxo-N-(3-(piperidin-1-yl)propyl)thieno[2,3-b]pyridine-5-carboxamide potassium salt], for which the “number of arm entries” value turned out to be 30.

The experiment is the same for the next values; noted with them: 5 mg/kg i.p., 12 minutes on cross maze, chance performance 22.5%.
In the case of `CC(C)n1c(=O)c(C(=O)NCCCN2CCCCC2)c([O-])c2ccsc21.[K+]` [Compound 23, 6,7-Dihydro-4-hydroxy-7-isopropyl-6-oxo-N-(3-(piperidin-1-yl)propyl)thieno[2,3-b]pyridine-5-carboxamide potassium salt], the mean alternation score is listed as 58%±3%.

A further experiment deals with rats. Briefly: Reversal of the scopolamine-induced deficit of Morris water maze performance. Format: in vivo, rat. Conditions: scopolamine 1 mg/kg i.p., compound at both 15 mg/kg and 30 mg/kg p.o. The source says: Reversal of the Scopolamine-Induced Deficit of Water Maze Performance in Rats
The Morris Water Maze test is commonly used to study hippocampal-dependent spatial memory acquisition. It consists of a water pool with a hidden escape platform where the rats must learn the location of the platform using either contextual or local cues. […] Lesions of the hippocampus or its cholinergic input impair performance (e.g., by scopolamine) by inducing a performance deficit (latency or time to reach the platform location) in this test without affecting the speed of swimming or other general behaviors in the test animals.
As to `CC(C)n1c(=O)c(C(=O)NCCCN2CCCCC2)c([O-])c2ccsc21.[K+]` [Compound 23, 6,7-Dihydro-4-hydroxy-7-isopropyl-6-oxo-N-(3-(piperidin-1-yl)propyl)thieno[2,3-b]pyridine-5-carboxamide potassium salt], the “decrease in path length to reach the platform” value was 35-55% and the “decrease in time to reach the platform” value is given as 25-30%.

The experiment is the same for the next values; noted with them: scopolamine pretreatment 1 mg/kg i.p.
In the case of `CN1[C@@H]2C[C@@H](OC(=O)[C@H](CO)c3ccccc3)C[C@H]1[C@@H]1O[C@@H]12` [scopolamine, reference compound], the “increase in latency and path length to find the platform compared with vehicle treated rats” value was around 5 fold.

In general, Ki refers to the dissociation constant of the complex between target and ligand, obtained from inhibition or displacement.
